Data set [1] can be described thus: Human liver microsome intrinsic clearance. To be noted: human liver microsomes. (In general: Liver microsomes are a subcellular fraction often used to study metabolism.)
A further data set concerns MRC5 cells. Description: MRC5 cell toxicity. Type of data set: cell-based. Conditions: in words.
A short description of data set [2]: In vivo pharmacokinetics of 29d, 10 mg/kg ip. Set-up: species or system BALB/c mice.
Another data set is described as follows: Mouse plasma stability. Type of data set: in vitro ADME. To be noted: in words.
The next data set deals with Caco-2. The data set can be described thus: Caco-2 permeability and efflux assay. Type of data set: in vitro ADME. On the technique in general: Caco-2 monolayers are a common model of the intestinal barrier.

Bounds are passed on as bounds.

Take “3-(5-(Piperidin-1-yl)-1H-pyrrolo[2,3-b]pyridin-3-yl)benzonitrile [24c]”: in data set [1], the “HLM Clint” value was 44 μg/min/mg protein.
In the case of “5-(1-methyl-1H-pyrazol-4-yl)-3-(4-(trifluoromethyl)phenyl)-1H-pyrrolo[2,3-b]pyridine [13i]”, the “HLM Clint” value in data set [1] was 66 μg/min/mg protein.
Take `Cn1cc(-c2cnc3[nH]cc(-c4cccc([N+](=O)[O-])c4)c3c2)cn1` [13t, 5-(1-Methyl-1H-pyrazol-4-yl)-3-(3-nitrophenyl)-1H-pyrrolo[2,3-b]pyridine]: the “toxicity in mammalian cells” value with MRC5 cells is “showed signs of toxicity in mammalian cells”.
The same measure, in the same setting: the entry for `Cn1cc(-c2cnc3[nH]cc(-c4ccc(O)cc4)c3c2)cn1` [13u, 4-(5-(1-Methyl-1H-pyrazol-4-yl)-1H-pyrrolo[2,3-b]pyridin-3-yl)phenol] is “showed signs of toxicity in mammalian cells”.
With `N#Cc1cccc(-c2c[nH]c3ncc(-c4cnn(C5CCNCC5)c4)cc23)c1` [29d], the brain penetration result in data set [2] was “not appreciably brain-penetrant”. In addition, in data set [2] (sparse sampling, 0.5 h, LLOQ = 9.77 ng/mL), the Mean brain concentration entry was “<LLOQ”. Further, the “toxicity in mammalian cells” value in the data set on MRC5 cells was “non-toxic in MRC5 cells”. Further, in the data set “Mouse plasma stability”, the “stability in mouse plasma” value is reported as “stable in mouse plasma”. In the data set on Caco-2, the “Caco-2 efflux / transporter substrate” value is on record as “likely a substrate for P-gp” and the Caco-2 permeability result is on record as “low permeability”.

Values taken from article PMC8412142 (Journal of medicinal chemistry, 2021).
